Assay results published in ChEMBL document CHEMBL3244265, “Preparation and biological actions of some symmetrically N,N-disubstituted dopamines” (J Med Chem, 1978).
Active and inactive are the calls of the source. No cut-off for these calls is given here.

How the values were obtained:
Felis catus [1] = experiment: Inhibition of 10 Hz electric current-induced cardioaccelerator nerve stimulation in iv dosed cat by cardiotachometer analysis; assay type: functional, organism-based
Rattus norvegicus [2] = experiment: Induction of hyperactivity in Sprague-Dawley rat at 3.13 to 50 ug administered into caudate putamen; assay type: functional, organism-based
Felis catus [3] = experiment: Hypotensive activity in iv dosed cat; assay type: functional, organism-based
Felis catus [4] = species: Felis catus; experiment: Agonist activity at dopamine receptor in cat right atrium assessed as inhibition of cardiaccelerator nerve stimulation rate at 10 umol/L by cardiotachometer analysis; assay type: tissue-based; details: Cardiac atrium
Rattus norvegicus [5] = experiment: Induction of hyperactivity in Sprague-Dawley rat at 2.5 to 20 mg/kg, sc; assay type: functional, organism-based
Rattus norvegicus [6] = experiment: Induction of stereotyped behaviour in intrastriatally dosed Sprague-Dawley rat at 3.13 to 50 ug administered into caudate putamen; assay type: functional, organism-based
Rattus norvegicus [7] = experiment: Induction of hyperactivity in Sprague-Dawley rat at 3.13 to 50 ug administered into nucleus accumbens; assay type: functional, organism-based
Felis catus [8] = experiment: Effect on heart rate in iv dosed cat; assay type: functional, organism-based
Felis catus [9] = experiment: Inhibition of 2 Hz electric current-induced cardioaccelerator nerve stimulation in cat at 10 umol/kg, iv by cardiotachometer analysis; assay type: functional, organism-based
Columba livia [10] = experiment: Induction of pecking in im dosed pigeon; assay type: functional, organism-based
Rattus norvegicus [11] = experiment: Induction of stereotyped behaviour in Sprague-Dawley rat at 2.5 to 20 mg/kg, sc; assay type: functional, organism-based
Rattus norvegicus [12] = experiment: Induction of stereotyped behaviour in intrastriatally dosed Sprague-Dawley rat at 3.13 to 50 ug administered into nucleus accumbens; assay type: functional, organism-based
Rattus norvegicus [13] = experiment: Induction of circling behaviour in Sprague-Dawley rat at 2.5 to 20 mg/kg, sc; assay type: functional, organism-based
Felis catus [14] = experiment: Inhibition of 2 Hz electric current-induced cardioaccelerator nerve stimulation in iv dosed cat by cardiotachometer analysis in presence of 0.2 mg/kg, iv haloperidol; assay type: functional, organism-based; set-up: dose 0.2 mg/kg; details: at 0.2 mg/kg
Canis familiaris [15] = experiment: Induction of emesis in sc dosed dog; assay type: functional; details: Canis lupus familiaris
Canis familiaris [16] = experiment: Toxicity in dog up to 2 mg/kg, sc; assay type: organism-based, Canis lupus familiaris; set-up: dose 2 mg/kg, route subcutaneous; details: in vivo
Felis catus [17] = experiment: Inhibition of 2 Hz electric current-induced cardioaccelerator nerve stimulation in iv dosed cat by cardiotachometer analysis in presence of 2 mg/kg, iv phentolamine; assay type: functional, organism-based; set-up: dose 2 mg/kg; details: at 2 mg/kg
Canis familiaris [18] = experiment: Antagonism of apomorphine-induced emesis in sc dosed dog treated 15 mins prior to apomorphine challenge; assay type: functional, organism-based; details: Canis lupus familiaris
Felis catus [19] = experiment: Inhibition of 2 Hz electric current-induced cardioaccelerator nerve stimulation in iv dosed cat by cardiotachometer analysis; assay type: functional
Canis familiaris [20] = species: Canis familiaris; experiment: Inhibition of cardioaccelerator nerve stimulation in dog in presence of phentolamine; assay type: functional, organism-based; details: Canis lupus familiaris
Felis catus [21] = species: Felis catus; experiment: Agonist activity at dopamine receptor in cat right atrium assessed as inhibition of cardiaccelerator nerve stimulation rate by cardiotachometer analysis; assay type: tissue-based; details: Cardiac atrium
Columba livia [22] = experiment: Antagonism of apomorphine-induced pecking in im dosed pigeon treated 15 mins prior to apomorphine challenge; assay type: functional
Rattus norvegicus [23] = experiment: Induction of circling behaviour in sc dosed Sprague-Dawley rat assessed as duration of action; assay type: functional
Rattus norvegicus [24] = experiment: Induction of stereotyped behaviour in Sprague-Dawley rat administered into caudate putamen; assay type: functional, organism-based
Rattus norvegicus [25] = experiment: Induction of stereotyped behaviour in Sprague-Dawley rat administered into nucleus accumbens; assay type: functional, organism-based
Felis catus [26] = experiment: Hypotensive activity in iv dosed cat in presence of haloperidol; assay type: functional, organism-based
Rattus norvegicus [27] = experiment: Induction of circling behaviour in Sprague-Dawley rat administered into caudate putamen; assay type: functional, organism-based
Rattus norvegicus [28] = experiment: Induction of stereotyped behaviour in Sprague-Dawley rat administered into nucleus accumbens in presence of 5 mg/kg aceperone; assay type: functional, organism-based; set-up: dose 5 mg/kg
Rattus norvegicus [29] = experiment: Induction of stereotyped behaviour in Sprague-Dawley rat administered into caudate putamen in presence of 5 mg/kg aceperone; assay type: functional, organism-based; set-up: dose 5 mg/kg
Rattus norvegicus [30] = experiment: Induction of circling behaviour in Sprague-Dawley rat administered into nucleus accumbens in presence of aceperone; assay type: functional, organism-based
Rattus norvegicus [31] = experiment: Induction of hyperactivity in Sprague-Dawley rat administered into nucleus accumbens in presence of 5 mg/kg aceperone; assay type: functional, organism-based; set-up: dose 5 mg/kg
Rattus norvegicus [32] = experiment: Induction of circling behaviour in Sprague-Dawley rat administered into nucleus accumbens in presence of haloperidol; assay type: functional, organism-based
Rattus norvegicus [33] = experiment: Induction of circling behaviour in sc dosed Sprague-Dawley rat in presence of 0.8 mg/kg haloperidol; assay type: functional, organism-based; set-up: dose 0.8 mg/kg
Rattus norvegicus [34] = experiment: Induction of circling behaviour in sc dosed Sprague-Dawley rat assessed as onset of action; assay type: functional
Rattus norvegicus [35] = experiment: Induction of hyperactivity in Sprague-Dawley rat administered into nucleus accumbens in presence of 0.2 to 0.8 mg/kg haloperidol; assay type: functional, organism-based
Rattus norvegicus [36] = experiment: Induction of hyperactivity in Sprague-Dawley rat administered into nucleus accumbens; assay type: functional, organism-based
Rattus norvegicus [37] = experiment: Induction of hyperactivity in Sprague-Dawley rat administered into caudate putamen in presence of 5 mg/kg propranolol; assay type: functional, organism-based; set-up: dose 5 mg/kg
Rattus norvegicus [38] = experiment: Induction of hyperactivity in Sprague-Dawley rat administered into caudate putamen in presence of 5 mg/kg aceperone; assay type: functional, organism-based; set-up: dose 5 mg/kg
Rattus norvegicus [39] = experiment: Induction of stereotyped behaviour in Sprague-Dawley rat administered into caudate putamen in presence of 0.2 to 0.8 mg/kg haloperidol; assay type: functional, organism-based
Rattus norvegicus [40] = experiment: Induction of circling behaviour in Sprague-Dawley rat administered into nucleus accumbens; assay type: functional, organism-based
Rattus norvegicus [41] = experiment: Induction of hyperactivity in Sprague-Dawley rat administered into nucleus accumbens in presence of 5 mg/kg propranolol; assay type: functional, organism-based; set-up: dose 5 mg/kg
Rattus norvegicus [42] = experiment: Induction of stereotyped behaviour in Sprague-Dawley rat administered into caudate putamen in presence of 5 mg/kg propranolol; assay type: functional, organism-based; set-up: dose 5 mg/kg
Rattus norvegicus [43] = experiment: Induction of circling behaviour in Sprague-Dawley rat administered into nucleus accumbens in presence of propranolol; assay type: functional, organism-based
Rattus norvegicus [44] = experiment: Induction of circling behaviour in sc dosed Sprague-Dawley rat assessed as reversal of spontaneous ipsilateral to contralateral circling response; assay type: functional, organism-based
Rattus norvegicus [45] = experiment: Induction of stereotyped behaviour in Sprague-Dawley rat administered into nucleus accumbens in presence of 5 mg/kg propranolol; assay type: functional, organism-based; set-up: dose 5 mg/kg
Rattus norvegicus [46] = experiment: Induction of circling behaviour in Sprague-Dawley rat administered into caudate putamen in presence of haloperidol; assay type: functional, organism-based
Rattus norvegicus [47] = experiment: Induction of circling behaviour in sc dosed Sprague-Dawley rat in presence of 5 mg/kg propranolol; assay type: functional, organism-based; set-up: dose 5 mg/kg
Rattus norvegicus [48] = experiment: Induction of stereotyped behaviour in Sprague-Dawley rat administered into nucleus accumbens in presence of 0.2 to 0.8 mg/kg haloperidol; assay type: functional, organism-based
Rattus norvegicus [49] = experiment: Induction of circling behaviour in sc dosed Sprague-Dawley rat in presence of 5 mg/kg aceperone; assay type: functional, organism-based; set-up: dose 5 mg/kg
Rattus norvegicus [50] = experiment: Induction of hyperactivity in Sprague-Dawley rat administered into caudate putamen in presence of 0.2 to 0.8 mg/kg haloperidol; assay type: functional, organism-based
Rattus norvegicus [51] = experiment: Induction of circling behaviour in Sprague-Dawley rat administered into caudate putamen in presence of propranolol; assay type: functional, organism-based
Rattus norvegicus [52] = experiment: Induction of hyperactivity in Sprague-Dawley rat administered into caudate putamen; assay type: functional, organism-based
Rattus norvegicus [53] = experiment: Induction of circling behaviour in Sprague-Dawley rat administered into caudate putamen in presence of aceperone; assay type: functional, organism-based

CCCCN(CCCC)CCc1ccc(O)c(O)c1
inhibition (Felis catus [1]): inactive
Activity (Rattus norvegicus [2]): inactive
Activity (Felis catus [3]): inactive
inhibition (Felis catus [4]): inactive
Activity (Rattus norvegicus [5]): inactive
Activity (Rattus norvegicus [6]): inactive
Activity (Rattus norvegicus [7]): inactive
Activity (Felis catus [8]): inactive
inhibition (Felis catus [9]): inactive
Activity (Columba livia [10]): inactive
Activity (Rattus norvegicus [11]): inactive
Activity (Rattus norvegicus [12]): inactive
Activity (Rattus norvegicus [13]): inactive

CN(C)CCc1ccc(O)c(O)c1
inhibition (Felis catus [1]): inactive
inhibition (Felis catus [14]): inactive
Activity (Rattus norvegicus [2]): inactive
Activity (Rattus norvegicus [5]): inactive
Activity (Rattus norvegicus [6]): inactive
ED50 (Canis familiaris [15]): inactive
Activity (Canis familiaris [16]): Non-toxic
Activity (Rattus norvegicus [7]): inactive
Activity (Felis catus [8]): inactive
inhibition (Felis catus [17]): inactive
inhibition (Canis familiaris [18]): inactive
ED50 (Felis catus [19]): 0.024 µmol/kg
Activity (Columba livia [10]): inactive
inhibition (Canis familiaris [20]): inactive
Activity (Rattus norvegicus [11]): inactive
Activity (Rattus norvegicus [12]): inactive
Activity (Rattus norvegicus [13]): inactive
ED50 (Felis catus [21]): 70 nM
ED50 (Columba livia [22]): 9.7 µmol/kg

CCN(CC)CCc1ccc(O)c(O)c1
Time (Rattus norvegicus [23]): 5 min
Activity (Rattus norvegicus [24]): Active
inhibition (Felis catus [1]): inactive
Activity (Rattus norvegicus [25]): Active
inhibition (Felis catus [14]): inactive
Activity (Felis catus [26]): inactive
Activity (Rattus norvegicus [27]): Active
Activity (Rattus norvegicus [28]): Active
Activity (Rattus norvegicus [29]): Active
Activity (Rattus norvegicus [30]): Active
Activity (Rattus norvegicus [31]): Active
Activity (Rattus norvegicus [32]): inactive
Activity (Felis catus [3]): Active
Activity (Rattus norvegicus [33]): inactive
Time (Rattus norvegicus [34]): 3 min
Activity (Rattus norvegicus [5]): inactive
ED50 (Canis familiaris [15]): inactive
Activity (Rattus norvegicus [35]): inactive
Activity (Rattus norvegicus [36]): Active
Activity (Canis familiaris [16]): Non-toxic
Activity (Felis catus [8]): inactive
Activity (Rattus norvegicus [37]): Active
Activity (Rattus norvegicus [38]): Active
Activity (Rattus norvegicus [39]): inactive
Activity (Rattus norvegicus [40]): Active
inhibition (Felis catus [17]): Active
Activity (Rattus norvegicus [41]): Active
Activity (Rattus norvegicus [42]): Active
Activity (Rattus norvegicus [43]): Active
inhibition (Canis familiaris [18]): inactive
ED50 (Felis catus [19]): 0.041 µmol/kg
Activity (Rattus norvegicus [44]): Active
Activity (Columba livia [10]): inactive
Activity (Rattus norvegicus [45]): Active
Activity (Rattus norvegicus [46]): inactive
Activity (Rattus norvegicus [47]): Active
Activity (Rattus norvegicus [48]): inactive
Activity (Rattus norvegicus [11]): inactive
Activity (Rattus norvegicus [49]): Active
ED50 (Felis catus [21]): 340 nM
Activity (Rattus norvegicus [50]): inactive
Activity (Rattus norvegicus [51]): Active
ED50 (Columba livia [22]): inactive
Activity (Rattus norvegicus [52]): Active
Activity (Rattus norvegicus [53]): Active
